Like-named read-outs stand apart in the source and are kept apart here.

Here are results for two compounds from patent US11666562B2, “Ilaprazole for inhibiting the release of enveloped viruses from cells” (Northwestern University, priority 2020, dated 2023).

The subject of one series is Vero cells. Briefly: Vero cell viability/toxicity (96 AQueous One Solution / WST-1). It counts as cell-based. The method, then: Drug potency and cell toxicity. EC50 calculations were determined by using AAT Bioquest's EC50 calculator. Cell toxicity at different concentrations of drugs as indicated was determine using the Cell Proliferation Reagent WST-1 (Roche Diagnostics) or cellular 96® Aqueous One Reagent viability reagent according to manufacturer's instructions. For 293T cells, the concentration of DMSO was 0.2% or less and assays were carried out with DMEM with 10% serum. Cell toxicity experiments were repeated twice.

In series [1] the target is T1, Tsg101-UEV (Tsg101 amino acids 1-145) (Homo sapiens, UniProt Q99816).
T1 construct: The recombinant Tsg101 fragment (amino acids 1-145), prepared as described above in Materials and Methods; His6 (N); thrombin protease cleavage site (N); made in house; host or cells: E. coli ROSETTA 2 (DE3) pLysS
T1 sequence (Q99816 1-145): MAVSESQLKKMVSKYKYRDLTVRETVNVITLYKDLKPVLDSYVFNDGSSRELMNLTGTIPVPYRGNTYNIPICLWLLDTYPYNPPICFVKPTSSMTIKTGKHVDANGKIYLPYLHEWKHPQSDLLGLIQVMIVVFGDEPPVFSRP
Nature of the series: Fluorescence thermal shift (FTS) assay, binding to Tsg101-UEV. Conditions: for Tm (melting temperature) shift of Tsg101-UEV: FTS, Sypro-Orange, no DTT. On the procedure: The fluorescence-based thermal shift assay is based on the observation that a protein unfolds upon heating, exposing the hydrophobic residues within its tertiary structure. The unfolding temperature (Tm) is determined by the protein's primary sequence and solution environment. The FTS assay uses a fluorescent dye sensitive to a hydrophobic environment to probe protein stability and its modulation by small molecule ligands. The dye has a low fluorescence quantum yield when in a polar environment. Once in contact with the hydrophobic core normally buried within a folded protein that has become exposed during the thermal unfolding (melting) process, the quantum yield of the dye increases, thus providing a reporting signal. Furthermore, a protein's stability can be affected by ligand binding, resulting in an increase or decrease in its melting temperature. FTS assay uses the Tm shift upon binding of a ligand to identify hit compounds for drug discovery.
Identification of prazole compounds that bind the UEV ubiquitin-binding domain of Tsg101. We screened chemical compounds using a fluorescence thermal shift (FTS) assay (27, 28) to identify small molecules that bind directly to a truncated form of Tsg101 (amino acids 1-145) which contains the Ubiquitin E2 variant (UEV) ubiquitin-binding domain (FIG. 1). The UEV, which contains the PT/SAP binding domain in addition to the ubiquitin-binding domain, provides chaperone functions to HIV-1 Gag that is independent of its interaction with the PS/TAP motif, and contains the prazole binding site (5). This truncated Tsg101, called Tsg101-UEV, was used because full-length Tsg101 has significant solubility issues in aqueous solution. Tsg101 is an adaptor protein and thus lacks a readily deployable functional assay, making FTS a tractable approach to identify interacting compounds. FTS monitors protein thermal denaturation using SYPRO-Orange, a dye which fluoresces when bound to hydrophobic surfaces, which allows monitoring of the changes in hydrophobic surface exposure during protein denaturation (27). Since ligand binding affects protein thermal stability, it can be detected through modulation of protein thermal denaturation (melting) as a shift in melting temperature (Tm). Tsg101-UEV has a well-defined melting curve suitable for FTS. We used the FTS assay to identify compounds that bind to Tsg101-UEV.
Purification of Tsg101 (1-145). N-terminally His6-tagged Tsg101 UEV domain (amino acids 1-145), called Tsg101-UEV, was encoded in a pET-28b vector (Novagen—EMD Millipore), which also included a thrombin protease cleavage site (His6-Thrombin Site-Tsg101, 1-145). Tsg101-UEV was grown in LB broth with Kanamycin (30 μg/ml) in ROSETTA 2 (DE3) pLysS E. coli competent cells (EMD Millipore) and induced with 1 mM IPTG at room temperature for 3 h. Bacteria were collected by centrifugation at 4,000 rpm for 10 min at […]. Bacteria were suspended in 50 ml binding buffer (20 mM Tris-HCl, pH 7.9, 0.5 M NaCl, 5 mM Imidazole) with 1 mM PMSF, 0.1% NP40, and a Protease Inhibitor Cocktail Tablet (Roche) and sonicated for 3.5 min on ice. The sonicate was spun at 9,000 rpm for 1 h at […] in a Sorvall centrifuge. The supernatant was collected and passed through a 1.5 ml Ni-NTA Agarose column. The column was washed with 20 mM Tris-HCl, pH 7.9, 0.5 M NaCl, 30 mM Imidazole wash buffer. […] Protein concentration was determined with a Nano Drop Spectrophotometer at […]. […]

The next series has as its system HIV-1. Conditions: earlier reports (refs 5, 29); cited from earlier work.

As for `COc1ccnc(C[S+]([O-])c2nc3ccc(-n4cccc4)cc3[nH]2)c1C` (stereo not shown) [Ilaprazole, 2-[(4-methoxy-3-methylpyridin-2-yl)methylsulfinyl]-6-pyrrol-1-yl-1H-benzimidazole], the “Cell toxicity to Vero cells” value in the series with Vero cells is reported as “did not observe cell toxicity”. The “Tm shift of Tsg101-UEV on addition of DTT” value in series [1] (FTS with reducing agent DTT) was “blocked by the addition of DTT”. Also, in series [1], the “Tm (melting temperature) shift of Tsg101-UEV” value was “largest thermal shift”.
Turning to `COc1ccc2[nH]c([S+]([O-])Cc3ncc(C)c(OC)c3C)nc2n1` (stereo not shown) [Tenatoprazole], the “Inhibition of release of infectious HIV-1 from 293T cells” value in the series on HIV-1 is on record as “quantitatively inhibit the release”. The “Cell toxicity to Vero cells” value with Vero cells (at concentrations that block virus release, 24 h) was “nontoxic”. In addition, the “Tm (melting temperature) shift of Tsg101-UEV” value was “dose-dependent shift in the Tm” in series [1] and “destabilizes the native protein structure” in series [1] (listed as tenatoprazole).
